Each structure is given as a SMILES string. Marks after values point to notes of the source that are not given here.

One data set is described as follows: logP determination by retention times (calibration with alkan-2-ones).
Conditions: not given
With `CC(=O)c1cccc(Nc2nccc(-c3sc(C(C)C)nc3C)n2)c1` [Example 10, 1-(3-{[4-(2-isopropyl-4-methyl-1,3-thiazol-5-yl)pyrimidin-2-yl]amino}phenyl)ethanone], the chromatographic logP (commonly lipophilicity estimated from chromatographic retention) stood at 3.1. Compound `COCc1nc(C)c(-c2ccnc(Nc3cc(OC)c(OC)c(OC)c3)n2)s1` [Example 295, 4-[2-(methoxymethyl)-4-methyl-1,3-thiazol-5-yl]-N-(3,4,5-trimethoxyphenyl)pyrimidine-2-amine] returned a chromatographic logP of 2.36. In turn, `Cc1nc(C)c(-c2ccnc(Nc3cccc(O)c3)n2)s1` [Example 141, 3-{[4-(2,4-dimethyl-1,3-thiazol-5-yl)pyrimidin-2-yl]amino}phenol] gave a chromatographic logP of 1.84. Still for that read-out and setting: the result for `COCc1nc(C)c(-c2ccnc(Nc3cccc(O)c3)n2)s1` [Example 101, 3-({4-[2-(methoxymethyl)-4-methyl-1,3-thiazol-5-yl]pyrimidin-2-yl}amino)phenol] reads 1.97; that for `Cc1nc(N(C)c2ccccc2)sc1-c1ccnc(Nc2ccccc2)n1` [Example 357, 4-{4-methyl-2-[methyl(phenyl)amino]-1,3-thiazol-5-yl}-N-phenylpyrimidine-2-amine], 3.21. `Cc1nc(N)sc1-c1ccnc(Nc2cccc([N+](=O)[O-])c2)n1` [Example 206, 4-(2-amino-4-methyl-1,3-thiazol-5-yl)-N-(3-nitrophenyl)pyrimidine-2-amine]: the chromatographic logP worked out at 1.5. In the case of `Cc1nc(C2CC2)sc1-c1ccnc(Nc2ccc(N(C)C)c(Cl)c2)n1` [Example 63, 2-chloro-N4-[4-(2-cyclopropyl-4-methyl-1,3-thiazol-5-yl)pyrimidin-2-yl]-N1,N1-dimethylbenzene-1,4-diamine], the chromatographic logP was found to be 2.59.

`CC(=O)c1cccc(Nc2nccc(-c3sc(NCC4CCCO4)nc3C)n2)c1` (stereo not drawn) [Example 39, 1-{3-[(4-{4-methyl-2-[(tetrahydrofuran-2-ylmethyl)amino]-1,3-thiazol-5-yl}pyrimidin-2-yl)amino]phenyl}ethanone]: the chromatographic logP amounted to 1.82. In turn, `COc1cc(Nc2nccc(-c3sc(NCC4CCCO4)nc3C)n2)cc(OC)c1OC` (stereo not drawn) [Example 354, 4-{4-methyl-2-[(tetrahydrofuran-2-ylmethyl)amino]-1,3-thiazol-5-yl}-N-(3,4,5-trimethoxyphenyl)pyrimidine-2-amine] came in with a chromatographic logP of 1.8. Take `COCc1nc(C)c(-c2ccnc(Nc3ccc(OC)nc3)n2)s1` [Example 298, 4-[2-(methoxymethyl)-4-methyl-1,3-thiazol-5-yl]-N-(6-methoxypyridin-3-yl)pyrimidine-2-amine]: the chromatographic logP was determined as 2.13.

With `COc1ccc(Nc2nccc(-c3sc(C)nc3C)n2)cc1OC` [Example 403, N-(3,4-dimethoxyphenyl)-4-(2,4-dimethyl-1,3-thiazol-5-yl)pyrimidine-2-amine], the chromatographic logP was found to be 2.16. Same read-out and setting: the result for `COc1ccc(Nc2nccc(-c3sc(C)nc3C)n2)cn1` [Example 187, 4-(2,4-dimethyl-1,3-thiazol-5-yl)-N-(6-methoxypyridin-3-yl)pyrimidine-2-amine] reads 2.09.

The same data set, now with this note: * HPLC reversed-phase C18, 40° C., mobile phase 0.1% aqueous formic acid and acetonitrile, linear gradient 10% to 95% acetonitrile.
Regarding `CN(C)c1nc(C(F)(F)F)c(-c2ccnc(Nc3ccc(I)cc3)n2)s1` [Example 778, 4-[2-(dimethylamine)-4-(trifluoromethyl)-1,3-thiazol-5-yl]-N-(4-iodophenyl)pyrimidine-2-amine], the logP is reported as 4.88*.

Consider `CN(C)c1nc(C(F)(F)F)c(-c2ccnc(Nc3ccc(F)cc3)n2)s1` [Example 777, 4-[2-(dimethylamine)-4-(trifluoromethyl)-1,3-thiazol-5-yl]-N-(4-fluorophenyl)pyrimidine-2-amine], for which the logP was 3.96*. Regarding `Cc1nc(N(C)C)sc1-c1ccnc(Nc2ccc(N3CCCC3=O)cc2)n1` [Example 761, 1-[4-({4-[2-(dimethylamine)-4-methyl-1,3-thiazol-5-yl]pyrimidin-2-yl}amino)phenyl]pyrrolidin-2-one], the logP was 1.6*. On to `CN(C)c1nc(C(F)(F)F)c(-c2ccnc(Nc3ccc4c(c3)OC(F)(F)C(F)(F)O4)n2)s1` [Example 780, 4-[2-(dimethylamine)-4-(trifluoromethyl)-1,3-thiazol-5-yl]-N-(2,2,3,3-tetrafluoro-2,3-dihydro-1,4-benzodioxin-6-yl)pyrimidine-2-amine], for which the logP is listed as 5.28*.

Still in this data set, the particulars now being: HPLC, reversed-phase C 18, EEC Directive 79/831 Annex V.A8; method *: 40° C., 0.1% aqueous formic acid and acetonitrile, linear gradient 10% to 95% acetonitrile.
As to `Cc1nc(NC(C)(C)C)sc1-c1ccnc(Nc2cccc(O)c2)n1` [Example 102, 3-({4-[2-(tert-butylamine)-4-methyl-1,3-thiazol-5-yl]pyrimidin-2-yl}amino)phenol], the logP is recorded as 1.82*.

Staying with this data set, now noted: logP, * HPLC reversed-phase C18, 40° C., mobile phase 0.1% aqueous formic acid and acetonitrile, linear gradient 10% to 95% acetonitrile.
`Cc1nc(C2CC2)sc1-c1ccnc(Nc2ccc3c(c2)OCO3)n1` [Example 617, N-1,3-benzodioxol-5-yl-4-(2-cyclopropyl-4-methyl-1,3-thiazol-5-yl)pyrimidine-2-amine] gave a chromatographic logP of 2.96. Consider `COCc1nc(C)c(-c2ccnc(Nc3cccc(CNC(=O)OC(C)(C)C)c3)n2)s1` [Example 639, tert-butyl-[3-({4-[2-(methoxymethyl)-4-methyl-1,3-thiazol-5-yl]pyrimidin-2-yl}amino)benzyl]carbamate], for which the chromatographic logP was 2.94. For the compound `Cc1nc(C)c(-c2ccnc(Nc3cccc(N(C)C)c3)n2)s1` [Example 551, N′-[4-(2,4-dimethyl-1,3-thiazol-5-yl)pyrimidin-2-yl]-N,N-dimethylbenzene-1,3-diamine], the chromatographic logP amounted to 1.75. The compound `COCCCOC(=O)c1ccc(Nc2nccc(-c3sc(COC)nc3C)n2)cc1` [Example 765, 3-methoxypropyl-4-({4-[2-(methoxymethyl)-4-methyl-1,3-thiazol-5-yl]pyrimidin-2-yl}amino)benzoate] returned a chromatographic logP of 2.63.

In the case of `COCc1nc(C)c(-c2ccnc(Nc3ccc4c(c3)OCO4)n2)s1` [Example 620, N-1,3-benzodioxol-5-yl-4-[2-(methoxymethyl)-4-methyl-1,3-thiazol-5-yl]pyrimidine-2-amine], the chromatographic logP amounted to 2.47. Same read-out and setting: the result for `CCc1nc(C)c(-c2ccnc(Nc3cccc(NC(C)=O)c3)n2)s1` [Example 415, N-(3-{[4-(2-ethyl-4-methyl-1,3-thiazol-5-yl)pyrimidin-2-yl]amino}phenyl)acetamide] reads 2.05; that for `COCc1nc(C)c(-c2ccnc(Nc3cc(OC)cc(OC)c3)n2)s1` [Example 764, N-(3,5-dimethoxyphenyl)-4-[2-(methoxymethyl)-4-methyl-1,3-thiazol-5-yl]pyrimidine-2-amine], 2.73.

As to `COCC(C)Nc1nc(C)c(-c2ccnc(Nc3ccc(F)cc3)n2)s1` (stereo not drawn) [Example 488, N-(4-fluorophenyl)-4-{2-[(2-methoxy-1-methylethyl)amino]-4-methyl-1,3-thiazol-5-yl}pyrimidine-2-amine], the chromatographic logP turned out to be 2. Take `Cc1nc(C)c(-c2ccnc(Nc3ccc4c(c3)OCO4)n2)s1` [Example 616, N-1,3-benzodioxol-5-yl-4-(2,4-dimethyl-1,3-thiazol-5-yl)pyrimidine-2-amine]: the chromatographic logP came to 2.44. The compound `Cc1nc(C(C)C)sc1-c1ccnc(Nc2ccc3c(c2)OCO3)n1` [Example 619, N-1,3-benzodioxol-5-yl-4-(2-isopropyl-4-methyl-1,3-thiazol-5-yl)pyrimidine-2-amine] gave a chromatographic logP of 3.25.

Consider `Cc1nc(C(C)C)sc1-c1ccnc(Nc2cccc(Cl)c2)n1` [Example 425, N-(3-chlorophenyl)-4-(2-isopropyl-4-methyl-1,3-thiazol-5-yl)pyrimidine-2-amine], for which the chromatographic logP was 4.25.

The data set is the same for the next values; noted with them: logP, ** HPLC reversed-phase C18, 43° C., mobile phase 0.1% aqueous phosphoric acid and acetonitrile, linear gradient 10% to 95% acetonitrile.
For the compound `Cc1nc(C)c(-c2ccnc(Nc3ccc(CNC(=O)OC(C)(C)C)cc3)n2)s1` [Example 625, tert-butyl-(4-{[4-(2,4-dimethyl-1,3-thiazol-5-yl)pyrimidin-2-yl]amino}benzyl)carbamate], the chromatographic logP amounted to 2.7.

The data set is the same for the next values; noted with them: logP, values marked *: HPLC on reversed-phase C 18, 40° C., mobile phase 0.1% aqueous formic acid and acetonitrile, linear gradient 10% to 95% acetonitrile.
For `Cc1nc(C)c(-c2nc(Nc3ccccc3)ncc2Cl)s1` [Example 873, 5-chloro-4-(2,4-dimethyl-1,3-thiazol-5-yl)-N-phenylpyrimidine-2-amine], the chromatographic logP is 3.26.

Take `COc1cc(Nc2nccc(-c3sc(C(C)(C)C)nc3C)n2)cc(OC)c1OC` [Example 888, 4-(2-tert-butyl-4-methyl-1,3-thiazol-5-yl)-N-(3,4,5-trimethoxyphenyl)pyrimidine-2-amine]: the chromatographic logP is 3.48. `COCCOc1nc(C)c(-c2ccnc(Nc3cccc(OC)c3)n2)s1` [Example 914, 4-[2-(2-methoxyethoxy)-4-methyl-1,3-thiazol-5-yl]-N-(3-methoxyphenyl)pyrimidine-2-amine] gave a chromatographic logP of 2.92. On to `COCCNc1nc(C)c(-c2ccnc(Nc3ccc4c(c3)C(=O)OC4)n2)s1` [Example 890, 6-[(4-{2-[(2-methoxyethyl)amino]4-methyl-1,3-thiazol-5-yl}pyrimidin-2-yl)amino]-2-benzofuran-1(3H)-one], for which the chromatographic logP was found to be 1.53.

The compound `CC(=O)c1ccc(Nc2nccc(-c3sc(C(C)C)nc3C)n2)cc1` [Example 820, 1-(4-{[4-(2-isopropyl-4-methyl-1,3-thiazol-5-yl)pyrimidin-2-yl]amino}phenyl)ethanone] gave a chromatographic logP of 3.06.

As to `COCCOc1nc(C)c(-c2ccnc(Nc3cccc(Cl)c3)n2)s1` [Example 913, N-(3-chlorophenyl)-4-[2-(2-methoxyethoxy)-4-methyl-1,3-thiazol-5-yl]pyrimidine-2-amine], the chromatographic logP turned out to be 3.57.

The same data set, now with this note: values marked *: HPLC on reversed-phase C 18, 40° C., mobile phase 0.1% aqueous formic acid and acetonitrile, linear gradient 10% to 95% acetonitrile.
For `COc1cc(Nc2nccc(-c3sc(N(C)C)nc3C)n2)cc(OC)c1OC` [Example 850, 4-[2-(dimethylamine)-4-methyl-1,3-thiazol-5-yl]-N-(3,4,5-trimethoxyphenyl)pyrimidine-2-amine], the logP was 1.77*.

The record behind these values is patent publication US20090030024A1, “THIAZOLES AS FUNGICIDES” (priority 2005, published 2009).
